Data on ten molecules can be found in US8809361B2, “2,3-dihydrofuro[2,3-c]pyridines, their use as modulators of the G-protein-coupled receptor GPR119 and pharmaceutical compositions thereof” (Boehringer Ingelheim International GmbH, priority 2012, dated 2014).

The target in the test is T1, human GPR119 (Homo sapiens, UniProt Q8TDV5).
T1 construct: expression vector for human GPR119 cDNA (Acc. No. NP_848566); expressed in transfected cells
T1 sequence (Q8TDV5 1-335): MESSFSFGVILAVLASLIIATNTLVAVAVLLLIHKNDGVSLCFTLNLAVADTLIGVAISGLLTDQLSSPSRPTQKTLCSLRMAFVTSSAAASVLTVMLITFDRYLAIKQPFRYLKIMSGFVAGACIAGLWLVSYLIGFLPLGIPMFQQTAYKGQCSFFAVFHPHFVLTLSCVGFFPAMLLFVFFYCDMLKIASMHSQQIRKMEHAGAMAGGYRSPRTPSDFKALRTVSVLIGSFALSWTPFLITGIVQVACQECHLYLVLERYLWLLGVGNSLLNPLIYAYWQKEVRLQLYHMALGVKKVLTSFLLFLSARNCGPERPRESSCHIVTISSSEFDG
Briefly: GPR119 activation / intracellular cAMP stimulation, AlphaScreen cAMP Assay in Min-6/hGPR119 cells. To be noted: MIN6 cells stably transfected with human GPR119, 45 minutes incubation at room temperature. The class given is cell-based. How it is done:
The compounds of formula I according to the invention modulate the activity of the G-protein-coupled receptor GPR119. The effect of the compounds on the activation of GPR119 and on the stimulation of intracellular cAMP concentration is determined using the AlphaScreen cAMP Assay Kit (Cat. No. #6760625R) made by PerkinElmer.
MIN6 cells [Miyazaki J et al., Endocrinology. 1990 July; 127(1):126-32] are stably transfected with an expression vector for human GPR119 cDNA (Acc. No. NP_848566). Min-6/hGPR119 cells are cultured in DMEM, 10% FBS, 50 μM β-mercaptoethanol, 0.3 mg/mL Geniticin, 2 mM GlutaMAX at 37° C., 5% CO2. For the assay, the cells are seeded in Optiplates (white, 384-well, 160W-barcoded, TC, sterile with lid, Cat. No. #6007688 (Perkin Elmer); 10000 cells/well; 50 μL). The plates covered with lids are then incubated for 24 hours at 37° C., 5% CO2. After the medium is aspirated from the wells completely, 10 ill of the test compound are added, the compounds are diluted using stimulating buffer (140 mM NaCl, 3.6 mM KCl, 0.5 mM NaH2PO4, 0.5 mM MgSO4, 1.5 mM CaCl2, 10 mM Hepes, 5 mM NaHCO3; pH 7.4. 0.5 mM IBMX and 0.1% BSA, the final DMSO concentration is 1%). After 45 minutes incubation at room temperature (approx. 20° C.), the cAMP concentrations are determined using the AlphaScreen cAMP Assay Kit (Cat. No. #6760625R from PerkinElmer).
On the technique in general: Bead proximity is the source of the signal in Alpha formats.
One may read the EC50 as the midpoint of the concentration-response curve. Low readings indicate greater potency, high ones weaker potency. As to `CC(C)c1noc(N2CCC3(CC2)CC2(Cc4cc(C5=CCN(S(C)(=O)=O)CC5)ncc4O2)C3)n1` [Example 23, 1″-(3-Isopropyl-[1,2,4]oxadiazol-5-yl)-5-(1-methanesulfonyl-1,2,3,6-tetrahydro-pyridin-4-yl)-dispiro[2,3-dihydrofuro[2,3-c]pyridine-2,1′-cyclobutane-3′,4″-piperidine]], a half-maximal effect (EC50) was put at 12 nM.

In turn, `CCCc1noc(N2CCC3(CC2)CC2(Cc4cc(C5=CCN(S(C)(=O)=O)CC5)ncc4O2)C3)n1` [Example 24, 5-(1-Methanesulfonyl-1,2,3,6-tetrahydro-pyridin-4-yl)-1″-(3-n-propyl-[1,2,4]oxadiazol-5-yl)-dispiro[2,3-dihydrofuro[2,3-c]pyridine-2,1′-cyclobutane-3′,4″-piperidine]] came in with an EC50 of 10 nM.

`CC(C)c1nc(N2CCC3(CC2)CC2(Cc4cc(C5=CCN(S(C)(=O)=O)CC5)ncc4O2)C3)no1` [Example 25, 1″-(5-Isopropyl-[1,2,4]oxadiazol-3-yl)-5-(1-methanesulfonyl-1,2,3,6-tetrahydro-pyridin-4-yl)-dispiro[2,3-dihydrofuro[2,3-c]pyridine-2,1′-cyclobutane-3′,4″-piperidine]] displayed an EC50 of 5 nM. Against the preceding molecule, the EC50 is about 2-fold lower.

`CCCc1nc(N2CCC3(CC2)CC2(Cc4cc(C5=CCN(S(C)(=O)=O)CC5)ncc4O2)C3)no1` [Example 26, 5-(1-Methanesulfonyl-1,2,3,6-tetrahydro-pyridin-4-yl)-1″-(3-n-propyl-[1,2,4]oxadiazol-3-yl)-dispiro[2,3-dihydrofuro[2,3-c]pyridine-2,1′-cyclobutane-3′,4″-piperidine]] came in with an EC50 of 8 nM.

For the molecule `C[C@H](OC(=O)N1CCC2(CC1)CC1(Cc3cc(C4=CCN(S(C)(=O)=O)CC4)ncc3O1)C2)C(F)(F)F` [Example 27, 1″-[(S)-2,2,2-Trifluoro-1-methyl-ethyloxycarbonyl]-5-(1-methanesulfonyl-1,2,3,6-tetrahydro-pyridin-4-yl)-dispiro[2,3-dihydrofuro[2,3-c]pyridine-2,1′-cyclobutane-3′,4″-piperidine]], the EC50 is 4 nM.

Take `CCc1cnc(N2CCC3(CC2)CC2(Cc4cc(C5=CCN(S(C)(=O)=O)CC5)ncc4O2)C3)nc1` [Example 28, 1″-(5-Ethyl-pyrimidin-2-yl)-5-(1-methanesulfonyl-1,2,3,6-tetrahydro-pyridin-4-yl)-dispiro[2,3-dihydrofuro[2,3-c]pyridine-2,1′-cyclobutane-3′,4″-piperidine]]: a half-maximal effect (EC50) was put at 11 nM.

Molecule `CSc1ccc(-c2cc3c(cn2)OC2(C3)CC3(CCN(C(=O)OC(C)(C)C)CC3)C2)c(C#N)c1` [Example 30, 5-(2-Cyano-4-methylsulfanyl-phenyl)-1″-tert-butoxycarbonyl-dispiro[2,3-dihydrofuro[2,3-c]pyridine-2,1′-cyclobutane-3′,4″-piperidine]] showed an EC50 of 14 nM. The EC50 values of the last two molecules are within 1.5-fold of each other.

`CC(C)(C)OC(=O)N1CCC2(CC1)CC1(Cc3cc(-c4ccc(S(C)(=O)=O)cc4C#N)ncc3O1)C2` [Example 31, 5-(2-Cyano-4-methylsulfonyl-phenyl)-1″-tert-butoxycarbonyl-dispiro[2,3-dihydrofuro[2,3-c]pyridine-2,1′-cyclobutane-3′,4″-piperidine]] came in with an EC50 of 5 nM.

Turning to `CS(=O)(=O)N1CC=C(c2cc3c(cn2)OC2(C3)CC3(CCN(c4ncc(C(F)(F)F)cn4)CC3)C2)CC1` [Example 32, 5-(1-Methanesulfonyl-1,2,3,6-tetrahydro-pyridin-4-yl)-1″-(5-trifluoromethyl-pyrimidin-2-yl)-dispiro[2,3-dihydrofuro[2,3-c]pyridine-2,1′-cyclobutane-3′,4″-piperidine]], the EC50 stood at 6 nM.

With `C[C@@H](OC(=O)N1CCC2(CC1)CC1(Cc3cc(C4=CCN(S(C)(=O)=O)CC4)ncc3O1)C2)C(F)(F)F` [Example 33, 5-(1-Methanesulfonyl-1,2,3,6-tetrahydro-pyridin-4-yl)-1″-[(R)-2,2,2-trifluoro-1-methyl-ethyloxycarbonyl]-dispiro[2,3-dihydrofuro[2,3-c]pyridine-2,1′-cyclobutane-3′,4″-piperidine]], the EC50 was 8 nM.
